Data published in patent US5969017A, “Methods of treating or preventing cardiac arrhythmia” (Merck & Co., Inc., priority 1997, dated 1999).

The molecules below were run on other cardiac K+ channels (assay: Block of the other cardiac K+ channels (IK1, IKr and IKs, summary)). Settings: summary of Table 2.
Format: cell-based, guinea pig
Description: D. Measurement of IKs IKr and IK1 in Guinea Pig Ventricular Myocytes.
Guinea pig ventricular myocytes were isolated using a modification of the procedure described by Mitra et al., Am. J. Physiol. 249:H1056-60 (1985). Excised hearts were perfused through the aorta (retrograde fashion) at a rate of 10 ml/min with oxygenated, warmed (37° C.) solutions described below. The heart was initially perfused for 7 minutes with a Tyrode's solution containing, in mM: 132 NaCl, 4 KCl, 1.2 MgCl2, 10 HEPES, 5 glucose, pH=7.2. The heart was then perfused with the same nominally Ca^2+ -free solution containing 150 units/ml Type II collagenase (Worthington) and 0.5 units/ml Type XIV protease (Sigma) for 8 minutes. This perfusate was followed by a Tyrode's solution contianing 0.2 mM CaCl2 (without enzymes) for 5 minutes. The digested ventricles were cut into small pieces and gently shaken until cells were visibly dispersed. The cells were stored at room temperature until use, within 8 hours after isolation.
Microelectrode fabrication:
The suction microelectrode technique described by Giles, W. R. and Shibata, E. F., "Voltage clamp of bull-frog cardiac pacemaker cells: a quantitative analysis of potassium currents", J. Physiol. 368:265-292 (1985) was used to voltage clamp the cells. Microelectrodes were made by using a two stage puller from square bore (1.0 mm o.d.) borosilicate capillary tubing. Pipettes were filled with 0.5 M K gluconate, 25 mM KCl and 5 mM K2 ATP. The electrodes had resistances of 3 to 7 Mohm when filled with this solution. After establishing whole-cell recording mode, negative pressure was maintained on the pipette using a 1 ml gas-tight syringe attached via air tight tubing to the suction port of the microelectrode holder. This minimized dialysis of the cell with the pipette solution.
To record K^+ currents, the cells were bathed in a Ca^2+ -free Tyrode's solution containing […]. […] To record Ca^2+ currents, the cells were bathed in Tyrode's solution containing 1.8 mM Ca^2+ without nisoldipine. The cell chamber was superfused with solutions at a rate of 1-2 ml/minute, while maintaining the temperture at […]. A List EPC-7 clamp amplifier was used to voltage clamp the isolated cells. Series resistance was compensated 40-70%, and current was low-pass filtered at a cut-off frequency of 1 kHz. […] Data was analyzed as % block from control membrane currents.
Nisoldipine was prepared as a 4 mM stock solution in polyethylne glycol 200. […] At the final concentrations used, neither polyethylene glycol 200 nor dimethyl sulfoxide had any effect on any of the measured membrane currents.
Selectivity for block of cardiac K^+ channels, IK1, IKr, and IKs was determined as previously described in guinea pig ventricular myocytes (U.S. Pat. No. 5,428,031).

SMILES | blockade of the other cardiac K+ channels (in words)
CC1CCC(C(C)C)C(P(=O)(c2ccccc2)c2ccccc2)C1 (stereo not shown) [A, (2-Isopropyl-5-methylcyclohexyl)diphenylphosphine oxide] | minimal or absent
Cc1cc(C)c(CP(=O)(c2ccccc2)c2ccccc2)c(-c2ccc(F)c(C)c2)c1 [B, 2-(Diphenylphosphinylmethyl)-4'-fluoro-3,5,3'-trimethyl-biphenyl] | minimal or absent
COc1ccc(-n2nc(Sc3ccc(Cl)cc3)c(C)c(C#N)c2=O)cc1 [C, 6-(4-Chlorophenylthio)-2-(4-methoxyphenyl)-5-methyl-3-oxo-2,3-dihydropyridazine-4-carbonitrile] | minimal or absent
COc1ccc(-n2nc(Sc3ccc(C)cc3)c(C)c(C#N)c2=O)cc1 [D] | minimal or absent
